Key:
S. epidermis = test: Minimal Effective Concentration (MEC) assay; assay type: cell-based, Staphylococcus epidermidis
Protocol: (§1) Three antimicrobial polypeptides, which are variants of SEQ ID NO: 1, were tested for antimicrobial activity. A Minimal Effective Concentration assay (MEC, expressed as micrograms/mL) against different microorganisms was performed using the three plectasin mutants, Y40YR, N17R and Y25R following the protocol described in the book of Methods in Molecular Biology, Vol. 78, Antibacterial peptide protocol William M. Shafer, Human Press.

M. luteus [1] = test: Minimal Effective Concentration (MEC) assay; assay type: cell-based, Micrococcus luteus
Protocol: as §1

B. subtilis = test: Minimal Inhibitory Concentration, NCCLS guidelines (Example 4); assay type: cell-based, Bacillus subtilis; conditions: purified peptide
Protocol: (§2) The Minimal Inhibitory Concentration (MIC, micrograms/mL) was determined to test for their antimicrobial activity following the NCCLS guidelines (Clinical and Laboratory Standards Institute; formerly known as National Committee for Clinical and Laboratory Standards).

[2] = system: Staphylococcus aureus, ATCC 29213; test: MIC, NCCLS/CLSI guidelines (Example 5), strain A; assay type: cell-based; conditions: average of two independent experiments
How it was run: (§3)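 Relative MIC category versus wild-type plectasin (0 >100%, 1 80-100%, 2 50-80%, 3 <50%), mean of two experiments. Determined per CLSI broth guidelines with expressed, purified peptides.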

[3] = system: Staphylococcus aureus, ATCC 25923; test: MIC, NCCLS/CLSI guidelines (Example 5), strain B; assay type: cell-based; conditions: average of two independent experiments
How it was run: as §3

[4] = system: Staphylococcus aureus, MRSA ST80 (2003); test: MIC, NCCLS/CLSI guidelines (Example 5), strain E; assay type: cell-based; conditions: average of two independent experiments
How it was run: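 Expressed, purified plectasin wild-type and variant peptides were tested for minimal inhibitory concentration under NCCLS/CLSI guidelines. Values are the mean of two independent experiments, scored relative to wild-type plectasin MIC: 0 >100%, 1 80-100%, 2 50-80%, 3 <50%.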

Staphylococcus carnosus = test: TAPS (Trans Acting Peptide System) assay, radial diffusion read-out; assay type: cell-based; design: key: classified as 4>3>2>1; whereas 4 is better than 1; classified as 4>3>2>1; classified as 4>3>2>1; wildtype activity corresponds to 1; conditions: peptide expressed in E. coli
Protocol: A range of antimicrobial polypeptides, which are variants of SEQ ID NO: 1, were tested in the TAPS assay. TAPS may be used to identify new or improved genes encoding peptides that can kill or inhibit the growth of target cells (see PCT application WO 2004/033715). The TAPS assay, an acronym for Trans Acting Peptide System, is based on having a sensitive host producing a peptide followed by screening for its activity in trans against an indicator strain. The advantage of this system is based on that the antimicrobial peptide is expressed in the Gram-negative bacterium E. coli and its antimicrobial activity can be monitored on different microbes including Gram-negatives, positives or fungi. Additionally, TAPS offers the possibility to produce correctly folded AMPs containing disulfide bonds in the host cells, thereby retaining their antimicrobial activities.
The TAPS approach requires first, that expression of the peptide is under control of an inducible promoter with tight regulation, because the host cells are sensitive to the peptide when producing it. Secondly, the produced peptide has to be released to the media so that it can interact with the target organism.
The TAPS screening can be carried out either in solid or liquid media. On solid media, a plasmid library is initially introduced into E. coli host cells. […] In the next step, the filter containing the colonies is transferred to LB growth medium containing inducer (0.1% arabinose) to permit peptide synthesis. Subsequently, the target strain, for example S. carnosus, is overlaid onto the plate and allowed to grow for 12-16 hours at 37° C. Finally, visual inspection of the host cells capable of reducing the proliferation of the target cells is performed and the nucleotide sequence encoding for the antimicrobial peptide is recovered from the host cells. DNA sequence analysis of the variants is obtained to elucidate the nature of the peptide.
As mentioned above, the TAPS screening can also be performed using liquid medium. This procedure requires the use of robotics to analyze large number of clones. In this system, the host E. coli origami cells are transformed with the plasmid library and plated out on LB medium+0.2% glucose+ampicillin (200 mg/L). Independent colonies are then inoculated into 96 or 384-well plates containing 200 micro-L of TB medium+ampicillin (200 mg/L) and cultured overnight at 37° C. These cultures are then replicated robotically and grown to exponential phase until inducer (0.1% arabinose) is added to trigger peptide synthesis. The next step consists in hydrolyzing the cells such that the peptide is released to the media by hot acid hydrolysis. This treatment consists on adding 1 M sodium Phosphate buffer pH 2.3 to obtain a final pH approximately of 2.3 and incubating the cultures overnight at 80° C. Next day, a 25 micro-L aliquot of the hydrolyzed cultures is used to perform an activity test against the desired target organisms. The activity test performed was a Radial Diffusion Assay (RDA) where an aliquot of the hydrolyzed cultures was added to the agarose media inoculated with the target strain, S. carnosus. […] Measurements of the diameter of the clearing zones were performed to quantify the potency of the antimicrobial activity of the peptides.
The antimicrobial activity (against Staphylococcus carnosus) of the tested plectasin variants, which was measured using the TAPS assay, is shown in table 3. The antimicrobial activity corresponds to the clearing zone size and has been classified as 4>3>2>1; whereas 4 is better than 1, and wildtype activity corresponds to 1.

M. luteus [5] = test: Minimal Inhibitory Concentration, NCCLS guidelines (Example 4); assay type: cell-based, Micrococcus luteus; conditions: purified peptide
Protocol: as §2

Sequence: GFGCNGPWDEDDMQCHNHCKSIKGYKGGYCAKGGFVCKCY (listed as Pseudoplectania nigrella) [wildtype, wildtype plectasin, parent antimicrobial polypeptide, reference compound]
- MEC against S. epidermis (S. epidermis): 0.98 micrograms/mL
- MEC against M. luteus (M. luteus [1]): 1.89 micrograms/mL
- MIC against B. subtilis (B. subtilis): 1 micrograms/mL
- MIC, strain A [2]: (8 μg/mL)
- Relative MIC, strain A ([2]; relative to wildtype Plectasin): 1 (80-100% of Plectasin wildtype MIC)
- MIC, strain B [3]: (22 μg/mL)
- Relative MIC, strain B ([3]; relative to wildtype Plectasin): 1 (80-100% of Plectasin wildtype MIC)
- MIC, strain E [4]: (22 μg/mL)
- Relative MIC, strain E ([4]; relative to wildtype Plectasin): 1 (80-100% of Plectasin wildtype MIC)
- Activity (antimicrobial activity, clearing zone size) (Staphylococcus carnosus): 1
- MIC against M. luteus (M. luteus [5]): 32 micrograms/mL
